For one assay, the target named is T1, Adenosine receptor A3 (Homo sapiens, UniProt P0DMS8).
T1 sequence (P0DMS8 whole entry): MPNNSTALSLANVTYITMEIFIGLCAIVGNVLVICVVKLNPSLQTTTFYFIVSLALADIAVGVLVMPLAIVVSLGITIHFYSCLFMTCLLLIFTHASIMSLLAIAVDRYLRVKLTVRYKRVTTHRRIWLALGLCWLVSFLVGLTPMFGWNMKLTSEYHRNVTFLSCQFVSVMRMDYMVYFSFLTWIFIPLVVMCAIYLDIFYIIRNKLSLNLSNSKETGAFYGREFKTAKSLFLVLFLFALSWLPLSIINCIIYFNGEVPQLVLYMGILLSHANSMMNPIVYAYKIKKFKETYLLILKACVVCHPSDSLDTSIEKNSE
Briefly: Displacement of [3H]NECA from human A3 receptor expressed in human HeLa cell membranes incubated for 180 mins by radioligand binding competition assay.

Assay [1] deals with T2, Adenosine receptor A1 (Homo sapiens) (UniProt P30542).
T2 sequence (whole entry): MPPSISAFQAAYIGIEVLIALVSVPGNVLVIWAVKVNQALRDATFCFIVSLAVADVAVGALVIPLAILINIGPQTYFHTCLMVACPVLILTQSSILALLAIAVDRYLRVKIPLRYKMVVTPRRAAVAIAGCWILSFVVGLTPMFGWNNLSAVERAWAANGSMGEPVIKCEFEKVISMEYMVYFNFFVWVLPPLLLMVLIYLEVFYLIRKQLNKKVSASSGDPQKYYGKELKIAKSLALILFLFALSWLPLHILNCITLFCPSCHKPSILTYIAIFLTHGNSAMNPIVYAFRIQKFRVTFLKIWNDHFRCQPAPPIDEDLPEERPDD
Briefly: Displacement of [3H]DPCPX from human recombinant A1 receptor expressed in CHOA1 cell membranes at 1 uM incubated for 60 mins by radioligand binding competition assay relative to control. For orientation: In a radioligand displacement assay an active substance lowers the binding of a labelled ligand.

Assay [2] has as its target T3, Adenosine receptor A2a (Homo sapiens, UniProt P29274). Kind of assay: Displacement of [3H]ZM241385 from human recombinant A2A receptor expressed in human HeLa cell membranes at 1 uM incubated for 30 mins by radioligand binding competition assay relative to control.
Assay [3] concerns the target T4, Adenosine receptor A3 (Homo sapiens) (UniProt P0DMS8).
T4 sequence (whole entry): T1 sequence (P0DMS8 whole entry)
Kind of assay: Displacement of [3H]NECA from human A3 receptor expressed in human HeLa cell membranes at 1 uM incubated for 180 mins by radioligand binding competition assay relative to control.

Another assay has as its target T5, Adenosine receptor A1 (Homo sapiens, UniProt P30542).
T5 sequence (P30542 whole entry): T2 sequence (whole entry)
Kind of assay: Displacement of [3H]DPCPX from human recombinant A1 receptor expressed in CHOA1 cell membranes incubated for 60 mins by radioligand binding competition assay.

For assay [4], the target named is T3, Adenosine receptor A2a. Kind of assay: Displacement of [3H]ZM241385 from human recombinant A2A receptor expressed in human HeLa cell membranes incubated for 30 mins by radioligand binding competition assay.
The species named for assay [5] is Homo sapiens. Kind of assay: Selectivity index, ratio of Ki for displacement of [3H]NECA from human A3 receptor expressed in human HeLa cell membranes incubated for 180 mins by radioligand binding competition assay to Ki for displacement of [3H]DPCPX from human recombinant A2B receptor expressed in human HEK293 cell membranes at 1 uM incubated for 30 mins by radioligand binding competition assay.

The species entered for assay [6] is Homo sapiens. Briefly: Selectivity index, ratio of Ki for displacement of [3H]DPCPX from human recombinant A1 receptor expressed in CHOA1 cell membranes incubated for 60 mins by radioligand binding competition assay to Ki for displacement of [3H]DPCPX from human recombinant A2B receptor expressed in human HEK293 cell membranes at 1 uM incubated for 30 mins by radioligand binding competition assay.

The target in a further assay is T6, Adenosine receptor A2b (Homo sapiens, UniProt P29275).
T6 sequence (P29275 whole entry): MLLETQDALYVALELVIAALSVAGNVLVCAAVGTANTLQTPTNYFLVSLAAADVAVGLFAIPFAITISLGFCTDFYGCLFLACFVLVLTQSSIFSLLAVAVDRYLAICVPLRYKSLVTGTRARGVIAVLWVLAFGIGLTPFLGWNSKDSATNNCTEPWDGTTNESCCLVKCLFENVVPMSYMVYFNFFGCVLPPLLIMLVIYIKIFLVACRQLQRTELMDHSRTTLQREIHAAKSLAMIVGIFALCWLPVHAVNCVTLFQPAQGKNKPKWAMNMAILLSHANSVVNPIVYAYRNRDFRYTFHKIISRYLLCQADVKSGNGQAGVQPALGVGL
Briefly: Displacement of [3H]DPCPX from human recombinant A2B receptor expressed in human HEK293 cell membranes incubated for 30 mins by radioligand binding competition assay.

The species entered for assay [7] is Homo sapiens. Briefly: Selectivity index, ratio of Ki for displacement of [3H]ZM241385 from human recombinant A2A receptor expressed in human HeLa cell membranes incubated for 30 mins by radioligand binding competition assay to Ki for displacement of [3H]DPCPX from human recombinant A2B receptor expressed in human HEK293 cell membranes at 1 uM incubated for 30 mins by radioligand binding competition assay.

T3 sequence (P29274 whole entry): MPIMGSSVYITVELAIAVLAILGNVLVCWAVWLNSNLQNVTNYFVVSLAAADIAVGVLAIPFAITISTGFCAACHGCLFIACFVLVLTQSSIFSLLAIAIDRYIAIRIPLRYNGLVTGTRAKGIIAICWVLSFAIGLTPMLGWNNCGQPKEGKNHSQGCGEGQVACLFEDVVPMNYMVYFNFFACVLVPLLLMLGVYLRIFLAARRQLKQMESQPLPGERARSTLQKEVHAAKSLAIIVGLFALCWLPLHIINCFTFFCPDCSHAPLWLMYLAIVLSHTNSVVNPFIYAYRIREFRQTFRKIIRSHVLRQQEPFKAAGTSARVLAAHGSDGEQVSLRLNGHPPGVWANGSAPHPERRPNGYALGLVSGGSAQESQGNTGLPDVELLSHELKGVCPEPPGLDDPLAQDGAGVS

As to `CC1=C(C(=O)OC(C)C)C(c2ccco2)n2c(nc3ccccc32)N1` (stereo not drawn), the inhibitory constant (Ki) stood at 2 nM on Adenosine receptor A3, 20 nM on Adenosine receptor A1 and 28 nM at Adenosine receptor A2a [4]. Also, the inhibition is 20% in [1], 28% on Adenosine receptor A2a [2] and 2% in assay [3].
In the case of `CC(C)OC(=O)C1=C(C(F)(F)F)Nc2nc3ccccc3n2C1c1ccoc1` (racemic), the Ratio Ki in the assay filed under Homo sapiens [5], in the assay listed under Homo sapiens [6] and in the assay listed under Homo sapiens [7] was more than 1000 in each case. Moreover, the inhibition constant (Ki) at Adenosine receptor A2b was determined as 49.2 nM. The inhibition in [1] was found to be 8%; on Adenosine receptor A2a [2] it was 23%; in assay [3] it was 23%.

The Ki is the dissociation constant of the complex between target and ligand, obtained from inhibition or displacement. One may read the inhibition as the share of the control response that was lost under treatment.

The values are drawn from ChEMBL document CHEMBL4414598, “Trifluorinated Pyrimidine-Based A2B Antagonists: Optimization and Evidence of Stereospecific Recognition” (J Med Chem, 2019).
